Measured values reported in ChEMBL document CHEMBL5543086, “Discovery of novel NSAID hybrids as cPLA2/COX-2 dual inhibitors alleviating rheumatoid arthritis via inhibiting p38 MAPK pathway” (Eur J Med Chem, 2024).
The source made the active and inactive calls. The rule behind the calls is not given here.

How the values were obtained:
RAW264.7 [1] = assay: Cytotoxicity against LPS-induced mouse RAW264.7 cells assessed as reduction in cell viability at 30 uM pretreated for 1 hr followed by LPS addition and measured after 24 hrs by MTT assay; assay type: toxicity, cell-based; details: raw264.7, 25 h
RAW264.7 [2] = assay: Antiinflammatory activity in LPS-induced mouse RAW264.7 cells assessed as inhibition of NO production pretreated for 1 hr followed by LPS stimulation and measured after 24 hrs by griess reagent based assay; assay type: functional, cell-based
Rattus norvegicus [3] = assay: Antiarthritic activity in Freund's complete adjuvant induced Lewis rat model of arthritis assessed as reduction in PGE2 level in serum at 20 mg/kg, po administered every 24 hrs for 28 days post immunization starting from day 8 post immunization by ELISA; assay type: functional, organism-based; details: time 21.0 day
Rattus norvegicus [4] = assay: Antiarthritic activity in Freund's complete adjuvant induced Lewis rat model of arthritis assessed as reduction in TNFalpha level in serum at 20 mg/kg, po administered every 24 hrs for 28 days post immunization starting from day 8 post immunization by ELISA; assay type: functional, organism-based; details: time 21.0 day
Rattus norvegicus [5] = assay: Antiarthritic activity in Freund's complete adjuvant induced Lewis rat model of arthritis assessed as reduction in IL-6 level in serum at 20 mg/kg, po administered every 24 hrs for 28 days post immunization starting from day 8 post immunization by ELISA; assay type: functional, organism-based; details: time 21.0 day
Rattus norvegicus [6] = assay: (§1) Immunomodulatory activity in Freund's complete adjuvant induced Lewis rat model of arthritis assessed as reduction in IL-17 level in serum at 20 mg/kg, po administered every 24 hrs for 28 days post immunization starting from day 8 post immunization by ELISA; assay type: functional, organism-based; details: time 21.0 day
Rattus norvegicus [7] = assay: (§2) Immunomodulatory activity in Freund's complete adjuvant induced Lewis rat model of arthritis assessed as increase in IL-10 level in serum at 20 mg/kg, po administered every 24 hrs for 28 days post immunization starting from day 8 post immunization by ELISA; assay type: functional, organism-based; details: time 21.0 day
Rattus norvegicus [8] = assay: as §2, with “anti-IL-10 antibody expression” for “IL-10 level”, “knee joint slices” for “serum”, “immunohistochemistry analysis” for “ELISA”; assay type: functional, organism-based; details: time 21.0 day
Rattus norvegicus [9] = assay: as §1, with “decrease” for “reduction”, “anti-IL-17 antibody expression” for “IL-17 level”, “knee joint slices” for “serum”, “immunohistochemistry analysis” for “ELISA”; assay type: functional, organism-based; details: time 21.0 day
[10] = Toxicity in male Wistar rat assessed as gastrointestinal damage by measuring number of ulcers at 50 mg/kg administered by gavage and measured after 6 hrs (reference value: 0); assay type: organism-based; details: in vivo, po
[11] = Toxicity in male Wistar rat assessed as gastrointestinal damage by measuring level-1 ulcers with <1 mm area at 50 mg/kg administered by gavage and measured after 6 hrs; assay type: organism-based; details: in vivo, po
[12] = Toxicity in male Wistar rat assessed as gastrointestinal damage by measuring level-2 ulcers with 1 to 3 mm area at 50 mg/kg administered by gavage and measured after 6 hrs; assay type: organism-based; details: in vivo, po
[13] = Toxicity in male Wistar rat assessed as gastrointestinal damage by measuring level-3 ulcers with >3 mm area at 50 mg/kg administered by gavage and measured after 6 hrs; assay type: organism-based; details: in vivo, po
[14] = Toxicity in male Wistar rat assessed as gastrointestinal damage by measuring ulcer index at 50 mg/kg administered by gavage and measured after 6 hrs; assay type: organism-based; details: in vivo, po

SMILES | Activity (RAW264.7 [1]) | further results
CCCCC/C=C\C/C=C\C/C=C\C/C=C\CC/C=C(/OC(=O)Cc1c(C)n(C(=O)c2ccc(Cl)cc2)c2ccc(OC)cc12)C(F)(F)F | Non-Toxic | –
CCCCC/C=C\C/C=C\C/C=C\C/C=C\CCCC(=O)C(F)(F)F [ARACHIDONYL TRIFLUOROMETHYLKETONE] | Non-Toxic | –
CCCCCCCC/C=C\CCCCCC/C=C(/OC(=O)C(C)c1ccc(-c2ccccc2)c(F)c1)C(F)(F)F (stereo not drawn) | Non-Toxic | –
CCC/C=C(/OC(=O)C(C)c1ccc(CC(C)C)cc1)C(F)(F)F (stereo not drawn) | Non-Toxic | –
CCCCCCCCCCCCCCCCCC/C=C(/OC(=O)C(C)c1ccc(-c2ccccc2)c(C)c1)C(F)(F)F (stereo not drawn) | Non-Toxic | –
CCCCC/C=C\C/C=C\CCCCCC/C=C(/OC(=O)[C@@H](C)c1ccc2cc(OC)ccc2c1)C(F)(F)F | Non-Toxic | –
CCCCCCCC/C=C(/OC(=O)[C@@H](C)c1ccc2cc(OC)ccc2c1)C(F)(F)F | Non-Toxic | –
CCCCCCCCCCCCCCCCCCCC/C=C(/OC(=O)[C@@H](C)c1ccc2cc(OC)ccc2c1)C(F)(F)F | Non-Toxic | –
CCCCCCC/C=C(/OC(=O)C(C)c1ccc(-c2ccccc2)c(F)c1)C(F)(F)F (stereo not drawn) | Non-Toxic | –
CCCCCCCC/C=C\CCCCCCCCCC/C=C(/OC(=O)C(C)c1ccc(-c2ccccc2)c(F)c1)C(F)(F)F (stereo not drawn) | Non-Toxic | –
CCCCC/C=C\C/C=C\CCCCCC/C=C(/OC(=O)C(C)c1ccc(CC(C)C)cc1)C(F)(F)F (stereo not drawn) | Non-Toxic | –
CCCCCCCCCCCCCCCCCC/C=C(/OC(=O)c1ccccc1OC(C)=O)C(F)(F)F | Non-Toxic | –
CCCCC/C=C\C/C=C\CCCCCC/C=C(/OC(=O)c1ccccc1OC(C)=O)C(F)(F)F | Non-Toxic | –
CCCCC/C=C\C/C=C\C/C=C\C/C=C\CC/C=C(/OC(=O)C(C)c1ccc(CC(C)C)cc1)C(F)(F)F (stereo not drawn) | Non-Toxic | IC50 (RAW264.7 [2]): 4.74 µM
CCCCCCCCCCCCCCCC/C=C(/OC(=O)C(C)c1ccc(CC(C)C)cc1)C(F)(F)F (stereo not drawn) | Non-Toxic | –
CCCCCCCC/C=C(/OC(=O)C(C)c1ccc(CC(C)C)cc1)C(F)(F)F (stereo not drawn) | Non-Toxic | –
CCCCCCCCCC/C=C(/OC(=O)C(C)c1ccc(-c2ccccc2)c(F)c1)C(F)(F)F (stereo not drawn) | Non-Toxic | –
CCCCC/C=C\C/C=C\C/C=C\C/C=C\CC/C=C(/OC(=O)C(C)c1ccc(-c2ccccc2)c(F)c1)C(F)(F)F (stereo not drawn) | Non-Toxic | IC50 (RAW264.7 [2]): 7.08 µM
CCCC/C=C(/OC(=O)C(C)c1ccc(CC(C)C)cc1)C(F)(F)F (stereo not drawn) | Non-Toxic | –
CC(C(=O)O)c1cccc(C(=O)c2ccccc2)c1 (stereo not drawn) [KETOPROFEN] | Non-Toxic | IC50 (RAW264.7 [2]): 7.07 µM; Activity (Rattus norvegicus [3]): Active; Activity (Rattus norvegicus [4]): Active; Activity (Rattus norvegicus [5]): Active; Activity (Rattus norvegicus [6]): Active; Activity (Rattus norvegicus [7]): Active; Activity (Rattus norvegicus [8]): Active; Activity (Rattus norvegicus [9]): Active; Activity [10]: 23; Activity [11]: 65%; Activity [12]: 30%; Activity [13]: 4%; UI [14]: 40
CCCCCCCC/C=C\CCCCCC/C=C(/OC(=O)c1ccccc1OC(C)=O)C(F)(F)F | Non-Toxic | –

SMILES | Activity (RAW264.7 [1]) | further results
CCCCCCCCCCCCCCCC/C=C(/OC(=O)c1ccccc1OC(C)=O)C(F)(F)F | Non-Toxic | –
CCCCCCCCCC/C=C(/OC(=O)C(C)c1ccc(CC(C)C)cc1)C(F)(F)F (stereo not drawn) | Non-Toxic | –
CCCCCCCCCCCCCC/C=C(/OC(=O)C(C)c1ccc(CC(C)C)cc1)C(F)(F)F (stereo not drawn) | Non-Toxic | –
CCCCCCCCCCCCCC/C=C(/OC(=O)C(C)c1ccc(-c2ccccc2)c(F)c1)C(F)(F)F (stereo not drawn) | Non-Toxic | –
CCCCCCCCCC/C=C(/OC(=O)C(C)c1ccc(C(=O)c2ccccc2)cc1)C(F)(F)F (stereo not drawn) | Non-Toxic | –
CCCCC/C=C\C/C=C\CCCCCC/C=C(/OC(=O)C(C)c1ccc(C(=O)c2ccccc2)cc1)C(F)(F)F (stereo not drawn) | Non-Toxic | –
CCCCCCCCCCCCCCCCCC/C=C(/OC(=O)C(C)c1ccc(CC(C)C)cc1)C(F)(F)F (stereo not drawn) | Non-Toxic | –
CCCCCCCC/C=C\CCCCCCCCCC/C=C(/OC(=O)c1ccccc1OC(C)=O)C(F)(F)F | Non-Toxic | –
CCCCC/C=C\C/C=C\CCCCCC/C=C(/OC(=O)C(C)c1ccc(-c2ccccc2)c(F)c1)C(F)(F)F (stereo not drawn) | Non-Toxic | –
CCCCCCCCCC/C=C(/OC(=O)[C@@H](C)c1ccc2cc(OC)ccc2c1)C(F)(F)F | Non-Toxic | –
CCCCCCCCCCCCCCCCCC/C=C(/OC(=O)[C@@H](C)c1ccc2cc(OC)ccc2c1)C(F)(F)F | Non-Toxic | –
CCCCCCCCCCCC/C=C(/OC(=O)[C@@H](C)c1ccc2cc(OC)ccc2c1)C(F)(F)F | Non-Toxic | –
CCCCC/C=C\C/C=C\C/C=C\C/C=C\CC/C=C(/OC(=O)c1ccccc1OC(C)=O)C(F)(F)F | Non-Toxic | –
CCCCCC/C=C(/OC(=O)c1ccccc1OC(C)=O)C(F)(F)F | Non-Toxic | –
CCCCCCCCCCCCCC/C=C(/OC(=O)[C@@H](C)c1ccc2cc(OC)ccc2c1)C(F)(F)F | Non-Toxic | –
C=CCCCCCCC/C=C(/OC(=O)C(C)c1ccc(-c2ccccc2)c(F)c1)C(F)(F)F (stereo not drawn) | Non-Toxic | –
CCCCCCCCCC/C=C(/OC(=O)c1ccccc1OC(C)=O)C(F)(F)F | Non-Toxic | –
CCCCCCCCCCCCCCCCCCCC/C=C(/OC(=O)C(C)c1ccc(-c2ccccc2)c(F)c1)C(F)(F)F (stereo not drawn) | Non-Toxic | –
CCCCCCCC/C=C(/OC(=O)c1ccccc1OC(C)=O)C(F)(F)F | Non-Toxic | –
CCCCCCCCCCCCCCCC/C=C(/OC(=O)[C@@H](C)c1ccc2cc(OC)ccc2c1)C(F)(F)F | Non-Toxic | –
CCCCCCCCCCCC/C=C(/OC(=O)c1ccccc1OC(C)=O)C(F)(F)F | Non-Toxic | –

SMILES | Activity (RAW264.7 [1]) | further results
CCCCCCCC/C=C\CCCCCC/C=C(/OC(=O)C(C)c1ccc(CC(C)C)cc1)C(F)(F)F (stereo not drawn) | Non-Toxic | –
C=CCCCCCCC/C=C(/OC(=O)[C@@H](C)c1ccc2cc(OC)ccc2c1)C(F)(F)F | Non-Toxic | –
CCCCCCCCCCCCC/C=C(/OC(=O)C(C)c1ccc(CC(C)C)cc1)C(F)(F)F (stereo not drawn) | Non-Toxic | –
CCCCCCCCCCCC/C=C(/OC(=O)C(C)c1ccc(CC(C)C)cc1)C(F)(F)F (stereo not drawn) | Non-Toxic | –
CCCCCCCC/C=C\CCCCCCCCCC/C=C(/OC(=O)[C@@H](C)c1ccc2cc(OC)ccc2c1)C(F)(F)F | Non-Toxic | –
CCCCCCCCCCCCCC/C=C(/OC(=O)c1ccccc1OC(C)=O)C(F)(F)F | Non-Toxic | –
CCCCCCCCCCCCCCCC/C=C(/OC(=O)C(C)c1ccc(-c2ccccc2)c(F)c1)C(F)(F)F (stereo not drawn) | Non-Toxic | –
CCCCCCCC/C=C\CCCCCCCCCC/C=C(/OC(=O)C(C)c1ccc(CC(C)C)cc1)C(F)(F)F (stereo not drawn) | Non-Toxic | –
CCCCCCCCCCCCCCCCC/C=C(/OC(=O)C(C)c1ccc(CC(C)C)cc1)C(F)(F)F (stereo not drawn) | Non-Toxic | –
CCCCCCCCCCCCCCCCCCCC/C=C(/OC(=O)c1ccccc1OC(C)=O)C(F)(F)F | Non-Toxic | –
CCCCCCC/C=C(/OC(=O)C(C)c1ccc(CC(C)C)cc1)C(F)(F)F (stereo not drawn) | Non-Toxic | –
CCCCCCC/C=C(/OC(=O)[C@@H](C)c1ccc2cc(OC)ccc2c1)C(F)(F)F | Non-Toxic | –
CCCCCCCC/C=C(/OC(=O)C(C)c1ccc(-c2ccccc2)c(F)c1)C(F)(F)F (stereo not drawn) | Non-Toxic | –
CCCCCCC/C=C(/OC(=O)c1ccccc1OC(C)=O)C(F)(F)F | Non-Toxic | –
CCCCCC/C=C(/OC(=O)C(C)c1ccc(CC(C)C)cc1)C(F)(F)F (stereo not drawn) | Non-Toxic | –
CCCCCCCCCCCCCCC/C=C(/OC(=O)C(C)c1ccc(CC(C)C)cc1)C(F)(F)F (stereo not drawn) | Non-Toxic | –
CCCCCCCC/C=C\CCCCCC/C=C(/OC(=O)[C@@H](C)c1ccc2cc(OC)ccc2c1)C(F)(F)F | Non-Toxic | –
CCCCC/C=C\C/C=C\C/C=C\C/C=C\CC/C=C(/OC(=O)[C@@H](C)c1ccc2cc(OC)ccc2c1)C(F)(F)F | Non-Toxic | IC50 (RAW264.7 [2]): 6.67 µM
CCCCCCCCCCCCCCCCCC/C=C(/OC(=O)C(C)c1ccc(C(=O)c2ccccc2)cc1)C(F)(F)F (stereo not drawn) | Non-Toxic | –
CCCCCCCCCCCCCCCCCCCC/C=C(/OC(=O)C(C)c1ccc(CC(C)C)cc1)C(F)(F)F (stereo not drawn) | Non-Toxic | –
